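A five-concentration, 48-hour dose response in 96-well plates underlies each endpoint, interpolated linearly between surrounding concentrations. GI50 marks 50% less growth.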 Activity calls are given as the source filed them. No stated cut-off is given here; in the data, active = GI50 up to about 1.1 µM and inactive = higher.
Experiments:
Test in all cases: NCI tumour cell line growth inhibition, 48 h
A549 = system: A549
ACHN = system: ACHN
CAKI-1 = system: CAKI-1
DMS-114 = system: DMS-114
HCT-15 = system: HCT-15
HL-60 = system: HL-60
HOP-92 = system: HOP-92
NCI-H226 = system: NCI-H226
NCI-H460 = system: NCI-H460
RXF 393 = system: RXF 393
SK-MEL-5 = system: SK-MEL-5
U-251 = system: U-251
EKVX = system: EKVX
HCC 2998 = system: HCC 2998
M14 = system: M14
SN12C = system: SN12C
UACC-62 = system: UACC-62
UO-31 = system: UO-31
Malme-3M = system: Malme-3M
NCI/ADR-RES = system: NCI/ADR-RES

SMILES | GI50 (A549) | GI50 (ACHN) | GI50 (CAKI-1) | GI50 (DMS-114) | GI50 (HCT-15) [µM] | GI50 (HL-60) | GI50 (HOP-92) | GI50 (NCI-H226) | GI50 (NCI-H460) | GI50 (RXF 393) | GI50 (SK-MEL-5) | GI50 (U-251) | GI50 (EKVX) | GI50 (HCC 2998) | GI50 (M14) | GI50 (SN12C) | GI50 (UACC-62) | GI50 (UO-31) | GI50 (Malme-3M) | GI50 (NCI/ADR-RES)
CN1NC(c2ccc(Cl)cc2)=C(C#N)C(=O)CC1c1ccccc1 (stereo not drawn) | > 100 µM (inactive) | > 100 µM (inactive) | > 100 µM (inactive) | > 100 µM (inactive) | > 100 | > 100 µM (inactive) | > 100 µM (inactive) | > 10 µM (inactive) | > 100 µM (inactive) | > 100 µM (inactive) | 72.9 µM (inactive) | > 100 µM (inactive) | – | – | – | – | – | – | – | –
c1ccc(-c2nnc(-c3nsc4ccccc34)o2)cc1 | > 100 µM (inactive) | – | – | > 100 µM (inactive) | > 100 | > 100 µM (inactive) | 18.4 µM (inactive) | – | – | > 100 µM (inactive) | > 100 µM (inactive) | > 100 µM (inactive) | 41.4 µM (inactive) | > 100 µM (inactive) | > 100 µM (inactive) | > 100 µM (inactive) | > 100 µM (inactive) | 19.5 µM (inactive) | – | –
Nc1nc(O)c2ncn(C3C=CC(CO)O3)c2n1 (stereo not drawn) | – | – | > 100 µM (inactive) | – | > 100 | – | > 100 µM (inactive) | > 100 µM (inactive) | > 100 µM (inactive) | > 100 µM (inactive) | > 100 µM (inactive) | > 100 µM (inactive) | – | – | > 100 µM (inactive) | > 100 µM (inactive) | – | > 100 µM (inactive) | > 100 µM (inactive) | > 100 µM (inactive)
O=C(c1ccccc1)c1nc2ccc(Cl)cc2c2c1CCCO2 | – | > 100 µM (inactive) | > 100 µM (inactive) | > 100 µM (inactive) | > 100 | – | – | > 100 µM (inactive) | > 100 µM (inactive) | 56.2 µM (inactive) | – | > 100 µM (inactive) | > 100 µM (inactive) | > 100 µM (inactive) | > 100 µM (inactive) | > 100 µM (inactive) | > 100 µM (inactive) | > 100 µM (inactive) | > 100 µM (inactive) | –
O=C(NN1C(=O)C(Cl)C1c1ccccc1O)c1ccccc1O (stereo not drawn) | 17.8 µM (inactive) | – | – | 6.82 µM (inactive) | – | 6.11 µM (inactive) | > 100 µM (inactive) | – | 5.33 µM (inactive) | 63.5 µM (inactive) | 29.4 µM (inactive) | 16.2 µM (inactive) | 29.4 µM (inactive) | – | 18.3 µM (inactive) | 89.5 µM (inactive) | 27.9 µM (inactive) | 21.3 µM (inactive) | 13.9 µM (inactive) | –

— ChEMBL document CHEMBL1201862, “PubChem BioAssay data set” (2004)
